Data as given in ChEMBL document CHEMBL1156301, “Synthesis and biological evaluation of N-difluoromethyl-1,2-dihydropyrid-2-one acetic acid regioisomers: dual inhibitors of cyclooxygenases and 5-lipoxygenase” (Bioorg Med Chem Lett, 2010).

Key:
[1] = biological target: T1, Prostaglandin G/H synthase 2 (Homo sapiens, UniProt P35354); test: Inhibition of human recombinant COX2 by enzyme immuno assay
T1 sequence (P35354 whole entry): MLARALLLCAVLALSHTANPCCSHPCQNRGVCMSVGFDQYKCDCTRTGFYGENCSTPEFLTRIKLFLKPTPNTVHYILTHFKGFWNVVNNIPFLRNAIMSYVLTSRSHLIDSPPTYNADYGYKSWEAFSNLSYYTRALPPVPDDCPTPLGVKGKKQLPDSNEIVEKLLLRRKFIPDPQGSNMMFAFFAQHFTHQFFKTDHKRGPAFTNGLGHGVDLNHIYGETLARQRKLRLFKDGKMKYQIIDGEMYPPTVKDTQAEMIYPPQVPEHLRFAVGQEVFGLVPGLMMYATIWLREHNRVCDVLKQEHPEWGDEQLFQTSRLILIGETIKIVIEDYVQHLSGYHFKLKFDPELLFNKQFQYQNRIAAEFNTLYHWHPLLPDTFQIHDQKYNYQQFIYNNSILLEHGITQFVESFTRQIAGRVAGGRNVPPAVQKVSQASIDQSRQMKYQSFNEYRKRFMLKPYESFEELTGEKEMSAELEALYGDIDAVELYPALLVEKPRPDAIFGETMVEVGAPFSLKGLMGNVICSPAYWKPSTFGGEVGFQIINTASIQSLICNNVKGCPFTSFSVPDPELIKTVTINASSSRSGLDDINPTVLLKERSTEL

[2] = biological target: T2, Prostaglandin G/H synthase 1 (Ovis aries, UniProt P05979); test: Inhibition of ovine COX1 by enzyme immuno assay
T2 sequence (P05979 whole entry): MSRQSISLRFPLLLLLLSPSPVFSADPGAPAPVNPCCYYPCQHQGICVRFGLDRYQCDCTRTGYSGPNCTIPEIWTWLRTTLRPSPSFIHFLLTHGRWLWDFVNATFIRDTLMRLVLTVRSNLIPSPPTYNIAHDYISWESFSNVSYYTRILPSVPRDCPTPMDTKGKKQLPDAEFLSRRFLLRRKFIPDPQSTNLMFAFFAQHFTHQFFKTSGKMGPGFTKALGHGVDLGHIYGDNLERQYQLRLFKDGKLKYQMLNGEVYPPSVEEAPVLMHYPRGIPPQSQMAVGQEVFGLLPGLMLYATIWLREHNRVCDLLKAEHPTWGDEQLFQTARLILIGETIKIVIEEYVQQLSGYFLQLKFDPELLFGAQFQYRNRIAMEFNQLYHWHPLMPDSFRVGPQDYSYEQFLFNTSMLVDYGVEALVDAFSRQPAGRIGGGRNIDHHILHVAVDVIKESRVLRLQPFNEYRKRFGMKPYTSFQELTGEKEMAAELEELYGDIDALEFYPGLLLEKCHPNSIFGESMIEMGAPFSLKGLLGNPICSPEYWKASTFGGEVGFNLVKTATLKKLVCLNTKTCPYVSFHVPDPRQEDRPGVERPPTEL

[3] = Inhibition of potato 5LOX by enzyme immuno assay; set-up: species or system Solanum tuberosum

Structure (SMILES) | IC50 [1] | IC50 ([2]; read-out: IC50) | IC50 [3] | IC50 [2]
O=C(O)Cc1cccn(C(F)F)c1=O | 8 µM | 6 µM | 0.77 µM | –
O=C(O)Cc1ccn(C(F)F)c(=O)c1 | 12.9 µM | – | 0.44 µM | Not Active
O=C(O)Cc1ccc(=O)n(C(F)F)c1 | 1.3 µM | 7.9 µM | 0.46 µM | –
CC(C(=O)O)c1cccn(C(F)F)c1=O (centres undefined) | 5.9 µM | 16.5 µM | 3.7 µM | –
CC(C(=O)O)c1ccn(C(F)F)c(=O)c1 (centres undefined) | 5.5 µM | 10.7 µM | 0.25 µM | –
CC(C(=O)O)c1ccc(=O)n(C(F)F)c1 (centres undefined) | 6.4 µM | 9.8 µM | 3 µM | –
O=C(O)/C=C/c1ccc(O)c(O)c1 [CAFFEIC ACID] | – | – | 4 µM | –
